Reference: patent US12673954B2 (BRISTOL-MYERS SQUIBB COMPANY, priority 2021, dated 2026)
Where two headings read alike, the source gives them in different places.

Columns and labels:
[1] = test system: IRF pathway, THP1-Dual™ cells; assay: STING reporter assay in THP1-Dual cells, IRF pathway (Lucia luciferase, QUANTI-Luc); format: cell-based, human; details: THP1-Dual cells, 10% human plasma, 20 hours, Lucia luciferase, 100% activation = 100 μM cGAMP, read-out: IRF (EC50 μM)
Description: (§1) THP1-Dual™ cells were derived from the human THP-1 monocyte cell line by stable integration of two inducible reporter constructs. To this end, THP1-Dual™ cells allow the simultaneous study of the NF-κB pathway, by monitoring the activity of SEAP, and the IRF pathway by assessing the activity of a secreted luciferase (Lucia). Both reporter proteins are readily measurable in the cell culture supernatant when using QUANTI-Blue™, a SEAP detection reagent, and QUANTI-Luc™, a luciferase detection reagent.
(§2) THP1-Dual™ cells induce the activation of NF-κB in response to STING agonists. They also trigger the IRF pathway upon stimulation with STING agonists, such as cGAMP. Here, the THP-1-Dual cells were used to assess STING specific binders for function on the cellular level.
(§3) Serial dilutions of compounds in DMSO were added to low volume 384 well plates at 100 nl/well using an ECHO acoustic dispenser (Labcyte, model 550) to achieve final starting concentration of 100 μM in cell suspension. […] One column of the plate was reserved for treatment with cGAMP at 100 μM for 100% activation calculation and one column for no treatment (DMSO only) for baseline activation. Plates were then incubated in 37° C. incubator at 5% CO2 for 20 hours.
(§4) Plates were read on the Envision (Perkin Elmer) at 620 nm wavelength (OD620). In the luciferase assay, 5 μl of Quantiluc (Invivogen, Rep-qlc2) is added to white 384 well plates seeded with THP1 cells and read at 5 minutes on the Envision (Perkin Elmer) using a luminescence protocol (RLU). 100% activation was determined by value (RLU) of THP-1 Dual STING cells stimulated with 100 μM cGAMP (Invivogen, cat #TLRL-NACGA23-5).

[2] = test system: NF-κB pathway, THP1-Dual™ cells; assay: STING reporter assay in THP1-Dual cells, NF-κB pathway (SEAP, QUANTI-Blue); format: cell-based, human; details: THP1-Dual cells, 10% human plasma, 20 hours, SEAP, 100% activation = 100 μM cGAMP, read-out: NFkB (EC50 μM)
Description: as §1, §2, §3, §4

| Structure (SMILES) | EC50 [1] [µM] | EC50 [2] [µM] | EC50 ([1]; Homo sapiens, THP1-Dual, 20 h) [µM] | EC50 ([2]; Homo sapiens, THP1-Dual, 20 h) [µM] |
| --- | --- | --- | --- | --- |
| COC(OC(=O)c1cc(Br)cc2cc(CNC(=O)c3cnn4cccnc34)oc12)C(F)(F)F (single isomer, unassigned) [EXAMPLE 340, 2,2,2-Trifluoro-1-methoxyethyl 5-bromo-2-((pyrazolo[1,5-a]pyrimidine-3-carboxamido)methyl)benzofuran-7-carboxylate] | 0.91 | 0.92 |  |  |
| CC(OC(=O)c1cc(Br)cc2cc(CNC(=O)c3cnn4cccnc34)oc12)C(F)(F)F (single isomer, unassigned) [EXAMPLE 341, 1,1,1-Trifluoropropan-2-yl 5-bromo-2-((pyrazolo[1,5-a]pyrimidine-3-carboxamido)methyl)benzofuran-7-carboxylate] | 1.6 | 2.5 |  |  |
| CC(OC(=O)c1cc(Br)cc2cc(CNC(=O)c3cnn4cccnc34)oc12)C(F)(F)F (single isomer, unassigned) [EXAMPLE 342, 1,1,1-Trifluoropropan-2-yl 5-bromo-2-((pyrazolo[1,5-a]pyrimidine-3-carboxamido)methyl)benzofuran-7-carboxylate] | 7.2 | 6 |  |  |
| COC(OC(=O)c1cc(C)cc2cc(CNC(=O)c3cnn4cccnc34)oc12)C(F)(F)F (single isomer, unassigned) [EXAMPLE 343, 2,2,2-Trifluoro-1-methoxyethyl 5-methyl-2-((pyrazolo[1,5-a]pyrimidine-3-carboxamido)methyl)benzofuran-7-carboxylate] |  |  | 0.73 | 0.76 |
| COC(OC(=O)c1cc(C)cc2cc(CNC(=O)c3cnn4cccnc34)oc12)C(F)(F)F (single isomer, unassigned) [EXAMPLE 344, 2,2,2-Trifluoro-1-methoxyethyl 5-methyl-2-((pyrazolo[1,5-a]pyrimidine-3-carboxamido)methyl)benzofuran-7-carboxylate] | 0.63 | 0.76 |  |  |
| COc1cc(C(=O)OC(C)C(F)(F)F)c2oc(CNC(=O)c3cnn4cccnc34)cc2c1 (single isomer, unassigned) [EXAMPLE 345, 1,1,1-Trifluoropropan-2-yl 5-methoxy-2-((pyrazolo[1,5-a]pyrimidine-3-carboxamido)methyl)benzofuran-7-carboxylate] |  |  | 5.7 | 3.6 |
| COc1cc(C(=O)OC(C)C(F)(F)F)c2oc(CNC(=O)c3cnn4cccnc34)cc2c1 (single isomer, unassigned) [EXAMPLE 346, 1,1,1-Trifluoropropan-2-yl 5-methoxy-2-((pyrazolo[1,5-a]pyrimidine-3-carboxamido)methyl)benzofuran-7-carboxylate] | 3.2 | 2.3 |  |  |
| COC(OC(=O)c1cc(C#N)cc2cc(CNC(=O)c3cnn4cccnc34)oc12)C(F)(F)F (single isomer, unassigned) [EXAMPLE 347, 2,2,2-Trifluoro-1-methoxyethyl 5-cyano-2-((pyrazolo[1,5-a]pyrimidine-3-carboxamido)methyl)benzofuran-7-carboxylate] |  |  | 3.3 | 2.3 |
| COC(OC(=O)c1cc(C#N)cc2cc(CNC(=O)c3cnn4cccnc34)oc12)C(F)(F)F (single isomer, unassigned) [EXAMPLE 348, 2,2,2-Trifluoro-1-methoxyethyl 5-cyano-2-((pyrazolo[1,5-a]pyrimidine-3-carboxamido)methyl)benzofuran-7-carboxylate] | 5.6 | 3.9 |  |  |
| CC(OC(=O)c1cc(C(F)(F)F)cc2cc(CNC(=O)c3cnn4cccnc34)oc12)C(F)(F)F (single isomer, unassigned) [EXAMPLE 349, 1,1,1-Trifluoropropan-2-yl 2-((pyrazolo[1,5-a]pyrimidine-3-carboxamido)methyl)-5-(trifluoromethyl)benzofuran-7-carboxylate] | 3.8 | 3.5 |  |  |
| CC(OC(=O)c1cc(C(F)(F)F)cc2cc(CNC(=O)c3cnn4cccnc34)oc12)C(F)(F)F (single isomer, unassigned) [EXAMPLE 350, 1,1,1-Trifluoropropan-2-yl 2-((pyrazolo[1,5-a]pyrimidine-3-carboxamido)methyl)-5-(trifluoromethyl)benzofuran-7-carboxylate] | 17 | 54 |  |  |
| COC(OC(=O)c1cc(C(F)(F)F)cc2cc(CNC(=O)c3cnn4cccnc34)oc12)C(F)(F)F (single isomer, unassigned) [EXAMPLE 351, 2,2,2-Trifluoro-1-methoxyethyl 2-((pyrazolo[1,5-a]pyrimidine-3-carboxamido)methyl)-5-(trifluoromethyl)benzofuran-7-carboxylate] |  |  | 1.9 | 2.4 |
| COC(OC(=O)c1cc(C(F)(F)F)cc2cc(CNC(=O)c3cnn4cccnc34)oc12)C(F)(F)F (single isomer, unassigned) [EXAMPLE 352, 2,2,2-Trifluoro-1-methoxyethyl 2-((pyrazolo[1,5-a]pyrimidine-3-carboxamido)methyl)-5-(trifluoromethyl)benzofuran-7-carboxylate] | 1.9 | 3.4 |  |  |
| COc1ccn2ncc(C(=O)NCc3cc4cc(Cl)cc(C(=O)OC(C)C(F)(F)F)c4o3)c2n1 (single isomer, unassigned) [EXAMPLE 368, 1,1,1-Trifluoropropan-2-yl 5-chloro-2-((5-methoxypyrazolo[1,5-a]pyrimidine-3-carboxamido)methyl)benzofuran-7-carboxylate] |  |  | 11 | 11 |
| COC(=O)c1cc(C)cc2cc(C(C)NC(=O)c3cnn4cccnc34)oc12 (single isomer, unassigned) [Example 97, Methyl-5-methyl-2-(1-(pyrazolo[1,5-a]pyrimidine-3-carboxamido)ethyl)benzofuran-7-carboxylate] |  |  | 2.1 | 1.5 |
| COC(=O)c1cccc2cc(CN3Cc4cccnc4C3=O)oc12 [EXAMPLE 1, Methyl 2-((7-oxo-5,7-dihydro-6H-pyrrolo[3,4-b]pyridin-6-yl)methyl)benzofuran-7-carboxylate] |  |  | 96 | 98 |
| COC(=O)c1cccc2cc(CN3Cc4c(F)cncc4C3=O)oc12 [EXAMPLE 3, Methyl 2-((7-fluoro-3-oxo-1,3-dihydro-2H-pyrrolo[3,4-c]pyridin-2-yl)methyl)benzofuran-7-carboxylate] |  |  | 51 | 92 |
| COC(=O)c1cccc2cc(CN3Cc4ccnc(F)c4C3=O)oc12 [EXAMPLE 4, Methyl 2-((4-fluoro-3-oxo-1,3-dihydro-2H-pyrrolo[3,4-c]pyridin-2-yl)methyl)benzofuran-7-carboxylate] |  |  | 13 | 14 |
| COC(=O)c1cccc2cc(CN3CCc4ccncc4C3=O)oc12 [EXAMPLE 5, Methyl 2-((1-oxo-3,4-dihydro-2,7-naphthyridin-2(1H)-yl)methyl)benzofuran-7-carboxylate] |  |  | 5.7 | 6.3 |
| COC(=O)c1cccc2cc(Cn3cnc4ccncc4c3=O)oc12 [EXAMPLE 6, Methyl 2-((4-oxopyrido[4,3-d]pyrimidin-3(4H)-yl)methyl)benzofuran-7-carboxylate] |  |  | 5.1 | 3.1 |
| COC(=O)c1cccc2cc(Cn3ccc4ccncc4c3=O)oc12 [EXAMPLE 7, Methyl 2-((1-oxo-2,7-naphthyridin-2(1H)-yl)methyl)benzofuran-7-carboxylate] |  |  | 4.3 | 4.1 |
| COC(=O)c1cccc2cc(CNC(=O)c3cnccn3)oc12 [EXAMPLE 8, Methyl 2-((pyrazine-2-carboxamido)methyl)benzofuran-7-carboxylate] |  |  | 21 | 18 |
| COC(=O)c1cccc2cc(CNC(=O)c3cnn4cccnc34)oc12 [EXAMPLE 9, Methyl 2-((pyrazolo[1,5-a]pyrimidine-3-carboxamido)methyl) benzofuran-7-carboxylate] | 2.1 | 1.8 |  |  |
| COC(=O)c1cccc2cc(CNC(=O)c3cnn4ccc(C)nc34)oc12 [EXAMPLE 10, Methyl 2-((5-methylpyrazolo[1,5-a]pyrimidine-3-carboxamido)methyl) benzofuran-7-carboxylate] | 7.5 | 7.6 |  |  |
| COC(=O)c1cccc2cc(CNC(=O)c3cnn4cc(C)cnc34)oc12 [EXAMPLE 11, Methyl 2-((6-methylpyrazolo[1,5-a]pyrimidine-3-carboxamido)methyl) benzofuran-7-carboxylate] | 6.1 | 6.7 |  |  |
| COC(=O)c1cccc2cc(CNC(=O)c3cnn4c(C)ccnc34)oc12 [EXAMPLE 12, Methyl 2-((7-methylpyrazolo[1,5-a]pyrimidine-3-carboxamido)methyl) benzofuran-7-carboxylate] | 33 | 39 |  |  |
